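Grown in 96-well plates, cells were treated for 48 hours with each compound at five concentrations. Insufficient inhibition: endpoint recorded as highest concentration tested. GI50: concentration for 50% inhibition of growth. TGI denotes the concentration required for complete inhibition of growth.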
Experiments:
Test in all cases: NCI anticancer screen, dose series, 48 h
[1] = tested on: CAKI-1 renal
[2] = tested on: OVCAR-8 ovarian
[3] = tested on: NCI-H226 lung
[4] = tested on: K-562 leukemia
[5] = tested on: SR leukemia
[6] = tested on: RPMI-8226 leukemia
[7] = tested on: SN12C renal
[8] = tested on: OVCAR-3 ovarian
[9] = tested on: OVCAR-4 ovarian
[10] = tested on: SK-MEL-28 melanoma
[11] = tested on: HT29 colon
[12] = tested on: SNB-75 CNS
[13] = tested on: A498 renal
[14] = tested on: COLO 205 colon
[15] = tested on: T-47D breast
[16] = tested on: BT-549 breast
[17] = tested on: SW-620 colon
[18] = tested on: 786-0 renal
[19] = tested on: MALME-3M melanoma
[20] = tested on: HOP-92 NSCLC
[21] = tested on: UO-31 renal
[22] = tested on: MOLT-4 leukemia
[23] = tested on: NCI-H23 lung
[24] = tested on: SF-295 CNS
[25] = tested on: TK-10 renal
[26] = tested on: MDA-MB-435
[27] = tested on: PC-3 prostate
[28] = tested on: HS 578T breast
[29] = tested on: U251 CNS
[30] = tested on: LOX IMVI melanoma
[31] = tested on: DU-145 prostate
[32] = tested on: M14 melanoma
[33] = tested on: SF-268 CNS
[34] = tested on: UACC-257 melanoma
[35] = tested on: HOP-62 NSCLC
[36] = tested on: NCI-H460 lung
[37] = tested on: NCI/ADR-RES ovarian
[38] = tested on: SNB-19 CNS
[39] = tested on: HCT-116 colon
[40] = tested on: HCC-2998 colon
[41] = tested on: RXF 393 renal
[42] = tested on: NCI-H522 lung
[43] = tested on: SK-MEL-5 melanoma
[44] = tested on: UACC-62 melanoma
[45] = tested on: ACHN renal
[46] = tested on: MDA-MB-231 breast
[47] = tested on: HL-60(TB) leukemia
[48] = tested on: A549 NSCLC
[49] = tested on: SK-OV-3 ovarian
[50] = tested on: HCT-15 colon
[51] = tested on: OVCAR-5 ovarian
[52] = tested on: MCF7 breast
[53] = tested on: SK-MEL-2 melanoma
[54] = tested on: SF-539 CNS
[55] = tested on: EKVX NSCLC
[56] = tested on: IGROV1 ovarian
[57] = tested on: KM12 colon
[58] = tested on: CCRF-CEM leukemia

O=C(Nc1ccc(Cc2ccccc2)cc1)Nc1nn(C(=O)Nc2ccc(Cc3ccccc3)cc2)c2ccccc12
GI50 [1]: > 100 µM | TGI [1]: > 100 µM | GI50 [2]: > 100 µM | TGI [2]: > 100 µM | GI50 [3]: > 100 µM | TGI [3]: > 100 µM | GI50 [4]: 40.5 µM | TGI [4]: > 100 µM | GI50 [5]: 16.3 µM | TGI [5]: 35.8 µM | GI50 [6]: > 100 µM | TGI [6]: > 100 µM | GI50 [7]: > 100 µM | TGI [7]: > 100 µM | GI50 [8]: > 100 µM | TGI [8]: > 100 µM | GI50 [9]: > 100 µM | TGI [9]: > 100 µM | GI50 [10]: > 100 µM | TGI [10]: > 100 µM | GI50 [11]: > 100 µM | TGI [11]: > 100 µM | GI50 [12]: 33.8 µM | TGI [12]: > 100 µM | GI50 [13]: 82.4 µM | TGI [13]: > 100 µM | GI50 [14]: > 100 µM | TGI [14]: > 100 µM | GI50 [15]: > 100 µM | TGI [15]: > 100 µM | GI50 [16]: > 100 µM | TGI [16]: > 100 µM | GI50 [17]: > 100 µM | TGI [17]: > 100 µM | GI50 [18]: > 100 µM | TGI [18]: > 100 µM | GI50 [19]: > 100 µM | TGI [19]: > 100 µM | GI50 [20]: 18 µM | TGI [20]: > 100 µM | GI50 [21]: > 100 µM | TGI [21]: > 100 µM | GI50 [22]: 63.2 µM | TGI [22]: > 100 µM | GI50 [23]: > 100 µM | TGI [23]: > 100 µM | GI50 [24]: > 100 µM | TGI [24]: > 100 µM | GI50 [25]: > 100 µM | TGI [25]: > 100 µM | GI50 [26]: > 100 µM | TGI [26]: > 100 µM | GI50 [27]: > 100 µM | TGI [27]: > 100 µM | GI50 [28]: 74.2 µM | TGI [28]: > 100 µM | GI50 [29]: 70.2 µM | TGI [29]: > 100 µM | GI50 [30]: 71 µM | TGI [30]: > 100 µM | GI50 [31]: 80 µM | TGI [31]: > 100 µM | GI50 [32]: > 100 µM | TGI [32]: > 100 µM | GI50 [33]: 75.6 µM | TGI [33]: > 100 µM | GI50 [34]: > 100 µM | TGI [34]: > 100 µM | GI50 [35]: 59.7 µM | TGI [35]: > 100 µM | GI50 [36]: > 100 µM | TGI [36]: > 100 µM | GI50 [37]: > 100 µM | TGI [37]: > 100 µM | GI50 [38]: > 100 µM | TGI [38]: > 100 µM | GI50 [39]: > 100 µM | TGI [39]: > 100 µM | GI50 [40]: > 100 µM | TGI [40]: > 100 µM | GI50 [41]: 30.4 µM | TGI [41]: > 100 µM | GI50 [42]: > 100 µM | TGI [42]: > 100 µM | GI50 [43]: > 100 µM | TGI [43]: > 100 µM | GI50 [44]: 41.6 µM | TGI [44]: > 100 µM | GI50 [45]: > 100 µM | TGI [45]: > 100 µM | GI50 [46]: 47.1 µM | TGI [46]: > 100 µM | GI50 [47]: > 100 µM | TGI [47]: > 100 µM | GI50 [48]: > 100 µM | TGI [48]: > 100 µM | GI50 [49]: > 100 µM | TGI [49]: > 100 µM | GI50 [50]: > 100 µM | TGI [50]: > 100 µM | GI50 [51]: > 100 µM | TGI [51]: > 100 µM | GI50 [52]: > 100 µM | TGI [52]: > 100 µM | GI50 [53]: > 100 µM | TGI [53]: > 100 µM | GI50 [54]: > 100 µM | TGI [54]: > 100 µM | GI50 [55]: > 100 µM | TGI [55]: > 100 µM | GI50 [56]: > 100 µM | TGI [56]: > 100 µM | GI50 [57]: > 100 µM | TGI [57]: > 100 µM

CC(=O)/C(=C/c1ccccc1)C(=O)CC(C)C
GI50 [1]: 7.56 µM | TGI [1]: 20.6 µM | GI50 [2]: 17.6 µM | TGI [2]: 53 µM | GI50 [3]: 25.1 µM | TGI [3]: 71.4 µM | GI50 [4]: 3.77 µM | TGI [4]: > 100 µM | GI50 [5]: 2.46 µM | TGI [5]: 7.37 µM | GI50 [6]: 4.31 µM | TGI [6]: 98.2 µM | GI50 [7]: 14.3 µM | TGI [7]: 39 µM | GI50 [8]: 4.69 µM | TGI [8]: 15.9 µM | GI50 [9]: 17.6 µM | TGI [9]: 41.4 µM | GI50 [10]: 11.5 µM | TGI [10]: 24.9 µM | GI50 [11]: 3.8 µM | TGI [11]: 12.8 µM | GI50 [12]: 21.2 µM | TGI [12]: 42.4 µM | GI50 [13]: 19.4 µM | TGI [13]: 38.8 µM | GI50 [14]: 16.9 µM | TGI [14]: 35.5 µM | GI50 [15]: 24 µM | TGI [15]: 91.9 µM | GI50 [16]: 14.9 µM | TGI [16]: 28.9 µM | GI50 [17]: 2.14 µM | TGI [17]: 4.63 µM | GI50 [18]: 17.5 µM | TGI [18]: 32.5 µM | GI50 [19]: 16.7 µM | TGI [19]: 37.3 µM | GI50 [20]: 32.7 µM | TGI [20]: > 100 µM | GI50 [21]: 10.5 µM | TGI [21]: 22.6 µM | GI50 [22]: 3.59 µM | TGI [22]: 79.4 µM | GI50 [23]: 18.4 µM | TGI [23]: 43.1 µM | GI50 [25]: 23.9 µM | TGI [25]: 50.5 µM | GI50 [26]: 2.44 µM | TGI [26]: 7.72 µM | GI50 [27]: 25.6 µM | TGI [27]: 93.6 µM | GI50 [28]: 3.89 µM | TGI [28]: 21.2 µM | GI50 [58]: 3.96 µM | TGI [58]: > 100 µM | GI50 [29]: 4.86 µM | TGI [29]: 17.7 µM | GI50 [30]: 1.85 µM | TGI [30]: 4.02 µM | GI50 [31]: 14.4 µM | TGI [31]: 28 µM | GI50 [32]: 10.8 µM | TGI [32]: 24.3 µM | GI50 [33]: 14.3 µM | TGI [33]: 33 µM | GI50 [34]: 13.9 µM | TGI [34]: 28.9 µM | GI50 [35]: 26.8 µM | TGI [35]: 71.8 µM | GI50 [36]: 17.5 µM | TGI [36]: 38.5 µM | GI50 [37]: 18.2 µM | TGI [37]: 58.9 µM | GI50 [38]: 12.7 µM | TGI [38]: 26.2 µM | GI50 [39]: 2.05 µM | TGI [39]: 3.97 µM | GI50 [40]: 9.49 µM | TGI [40]: 21.7 µM | GI50 [41]: 16.4 µM | TGI [41]: 30.5 µM | GI50 [42]: 9.68 µM | TGI [42]: 22 µM | GI50 [43]: 13.5 µM | TGI [43]: 26.9 µM | GI50 [44]: 6.54 µM | TGI [44]: 20.9 µM | GI50 [45]: 11.2 µM | TGI [45]: 26.3 µM | GI50 [46]: 18.2 µM | TGI [46]: 41.1 µM | GI50 [47]: 22.1 µM | TGI [47]: 90.2 µM | GI50 [48]: 26.5 µM | TGI [48]: 73.8 µM | GI50 [49]: 31.8 µM | TGI [49]: 99 µM | GI50 [50]: 4.69 µM | TGI [50]: 22.3 µM | GI50 [51]: 17.7 µM | TGI [51]: 41.6 µM | GI50 [52]: 4.5 µM | TGI [52]: 18.5 µM | GI50 [53]: 24.5 µM | TGI [53]: 60.7 µM | GI50 [54]: 23.4 µM | TGI [54]: 49.4 µM | GI50 [55]: 17.3 µM | TGI [55]: 40.9 µM | GI50 [56]: 16.4 µM | TGI [56]: 33.6 µM | GI50 [57]: 2.25 µM | TGI [57]: 5.01 µM

— PubChem BioAssay (NCI)
